Key:
MCF-10A cells = experiment: Inhibitory effects on the proliferation of MCF-10A cells (CCK8); type: cell-based; details: 6 days
Protocol: Experimental Example 2: Experiment of Inhibitory Effects on the Proliferation of MCF-10A Cells
MCF-10A cells (Cobioer Bio. #CBP60419MCF) were diluted with complete medium (Cobioer Bio. #CBP60419), seeded in 96-well plate (Corning #3599) at 500 cells/well, and then cultured for 24 h. Then, gradiently diluted compounds were added (starting at a final concentration of 10 μM, 3-fold dilution, 9 dose concentrations), and the final volume was adjusted to 100 μL/well. The plate was incubated at 37° C. under 5% CO2 for 6 days. After the cultivation was completed, CCK8 reagent (Signalway Antibody Bio. #CP002) was added at 10 μL/well, and then the plate was further incubated at 37° C. under 5% CO2 for 2-3 hours. The OD450 nm value was obtained by a microplate reader.
The results are shown in the MCF-OA IC50 column in Table 2.

T47D cells = experiment: Inhibitory effects on the proliferation of T47D cells (CellTiter-Glo); type: cell-based; details: 7 days
Protocol: Experimental Example 3: Experiment of Inhibitory Effects on the Proliferation of T47D Cells
T47D cells (ATCC. #HTB-133) were diluted with RPMI 1640 (Gibco #22400-089) containing 10% FBS (Hyclone #SH30084.03), seeded in 96-well plate (Biosharp #BS-MP-96W) at 1000 cells/well, and then cultured for 24 h. Then, gradiently diluted compounds were added (starting at a final concentration of 10 μM, 3-fold dilution, 9 dose concentrations), and the final volume was adjusted to 150 μL/well. The plate was incubated at 37° C. under […] for 7 days. After the cultivation was completed, CellTiter-Glo reagent (Promega #G7573) was added at 75 μL/well, and then the plate was further incubated at 25° C. for 10 min. After that, the chemiluminescence value was read using an instrument.
The results are shown in the T47D IC50 column in Table 2.

[1] = target: PI3Kα[WT]/[E542K]/[E545K]/[H1047R]/PI3Kβ/γ/δ; experiment: PI3K enzyme activity assay (ADP-Glo); type: biochemical; details: PI3K kinase reaction, isoform not given
Protocol: Experimental Example 1: PI3Kα[WT]/[E542K]/[E545K]/[H1047R]/PI3Kβ/γ/δ Enzyme Activity Assay
PI3Kα[WT], PI3Kα[E542K], PI3Kα[E545K], PI3Kα[H1047R], PI3Kβ, PI3Kγ and PI3Kδ kinase reaction was performed in 384-well plate (PerkinElmer, #6008280), with a reaction system of 4 μL. PI3Kα[WT] enzyme solution (Promega, #V1721) or PI3Kα[E542K] enzyme solution (CarnaBio, #11-413-20N) or PI3Kα[E545K] enzyme solution (CarnaBio, #11-414-20N) or PI3Kα[H1047R] enzyme solution (Promega, #V1741) or PI3Kβ enzyme solution (Promega, #V1751) or PI3Kγ enzyme solution (ThermoFisher, #PV4786) or PI3Kδ enzyme solution (ThermoFisher, #PV6451) were added to 384-well plate, and then gradiently diluted compounds were added (starting at a final concentration of 10 μM, 3-fold dilution, 10 doses), followed by adding PIP2: 3PS (Promega, #V1701) and ATP solution (Promega, #V915B) to the plate. After incubation at 25° C. for 1 h, ADP-Glo reagent buffer (Promega, #V9102) was added to each well. The plate was sealed and incubated at 25° C. for 40 min, and then 10 μL of ADP-Glo detection buffer (Promega, #V9102) was added to each well. After incubating at 25° C. for 40 min, the chemiluminescence value was read using an instrument.
The experimental results are shown in the ADP Glo IC50 column in Table 2.

| Compound | IC50 (MCF-10A cells; Homo sapiens, 144 h) [µM] | IC50 (T47D cells; Homo sapiens, 168 h) [µM] | IC50 (MCF-10A cells) [µM] | IC50 (T47D cells) [µM] | IC50 [1] [µM] |
| --- | --- | --- | --- | --- | --- |
| Cc1cc([C@@H](C)Nc2ccccc2C(O)C(F)(F)F)c2oc(-c3ccc(F)cc3)cc(=O)c2c1 (single isomer, unassigned) [Compound 67] | > 5 | 1 to 5 |  |  |  |
| Cc1cc([C@@H](C)Nc2ccccc2C(O)C(F)(F)F)c2oc(-c3ccc(F)cc3)cc(=O)c2c1 (single isomer, unassigned) [Compound 68] |  |  | > 5 | 1 to 5 |  |
| Cc1cc([C@@H](C)Nc2ccccc2C(=NO)C(F)(F)F)c2oc(-c3ccc(F)cc3F)cc(=O)c2c1 (stereo in doubt) [Compound 64, (R,E)-2-(2,4-difluorophenyl)-6-methyl-8-(1-((2-(2,2,2-trifluoro-1-(hydroxyimino)ethyl)phenyl)amino)ethyl)-4H-chromen-4-one] | > 5 | 1 to 5 |  |  |  |
| Cc1cc([C@@H](C)Nc2ccccc2C(=O)O)c2nc(N3CCC(C)(C)CC3)[nH]c(=O)c2c1 [Compound 4, (R)-2-((1-(2-(4,4-dimethylpiperidin-1-yl)-6-dimethyl-4-oxo-3,4-dihydroquinazolin-8-yl)ethyl)amino)benzoic Acid] |  |  |  |  | 1 to 5 |
| Cc1cc([C@@H](C)N[S@+]([O-])C(C)(C)C)c2nc(N3CCC(C)(C)CC3)n(C)c(=O)c2c1 [Compound 5] |  |  |  |  | 1 to 5 |
| Cc1cc([C@@H](C)Nc2ccccc2C(N)=O)c2oc(-c3ccc(F)cc3F)cc(=O)c2c1 [Compound 47] | > 5 | < 1 |  |  |  |
| Cc1cc([C@@H](C)Nc2ccccc2C(=O)OC(C)(C)C)c2nc(-c3c(C)noc3C)n(C)c(=O)c2c1 [Compound 49] | > 5 | 1 to 5 |  |  |  |
| Cc1cc([C@@H](C)Nc2ccc(Cl)nc2C(=O)OC(C)(C)C)c2nc(-c3c(C)noc3C)n(C)c(=O)c2c1 [Compound 50] | > 5 | 1 to 5 |  |  |  |
| Cc1cc([C@@H](C)Nc2ccccc2C(=O)O)c2nc(-c3c(C)noc3C)n(C)c(=O)c2c1 [Compound 51] | > 5 | > 5 |  |  |  |
| COC(=O)c1occc1N[C@H](C)c1cc(C)cc2c(=O)cc(-c3ccc(F)cc3F)oc12 [Compound 63, methyl (R)-3-((1-(2-(2,4-difluorophenyl)-6-methyl-4-oxo-4H-chromen-8-yl)ethyl)amino)furan-2-carboxylate] | > 5 | 1 to 5 |  |  |  |
| Cc1cc([C@@H](C)Nc2ccc(Cl)nc2C(=O)O)c2nc(-c3ccc(C(F)(F)F)cn3)n(C)c(=O)c2c1 [Compound 75] | > 5 | 1 to 5 |  |  |  |
| C[C@@H](Nc1ccccc1C(=O)O)c1cc(F)cc2c(=O)n(C)c(-c3ccc(F)cn3)nc12 [Compound 76] | > 5 | 1 to 5 |  |  |  |
| Cc1cc([C@@H](C)Nc2cc(F)ccc2C(=O)O)c2nc(-c3ccc(F)cn3)n(C)c(=O)c2c1 [Compound 78] | > 5 | 1 to 5 |  |  |  |
| C[C@@H](Nc1cccc(F)c1C(=O)O)c1cc(F)cc2c(=O)n(C)c(-c3ccccc3)nc12 [Compound 79] | > 5 | 1 to 5 |  |  |  |
| C[C@@H](Nc1cc(F)ccc1C(=O)O)c1cc(F)cc2c(=O)n(C)c(-c3ccc(F)cn3)nc12 [Compound 81] | > 5 | > 5 |  |  |  |
| C[C@@H](Nc1ccc(Cl)nc1C(=O)O)c1cc(Cl)cc2c(=O)n(C)c(-c3ccc(F)cn3)nc12 [Compound 83] | > 5 | < 1 |  |  |  |
| C[C@@H](Nc1sccc1C(=O)O)c1cc(F)cc2c(=O)n(C)c(-c3ccc(F)cn3)nc12 [Compound 84] | > 5 | > 5 |  |  |  |
| C[C@@H](Nc1c(C(=O)O)cnn1C)c1cc(Cl)cc2c(=O)n(C)c(-c3ccc(F)cn3)nc12 [Compound 86] | > 5 | > 5 |  |  |  |
| Cc1cc([C@@H](C)Nc2ccc(F)cc2C(=O)O)c2nc(-c3ccc(F)cn3)n(C)c(=O)c2c1 [Compound 87] | > 5 | < 1 |  |  |  |

| Compound | IC50 (MCF-10A cells; Homo sapiens, 144 h) [µM] | IC50 (T47D cells; Homo sapiens, 168 h) [µM] | IC50 (MCF-10A cells) [µM] | IC50 (T47D cells) [µM] | IC50 [1] [µM] |
| --- | --- | --- | --- | --- | --- |
| [2H]C([2H])([2H])n1c(-c2ccc(F)cn2)nc2c([C@@H](C)Nc3ccc(Cl)cc3C(=O)O)cc(F)cc2c1=O [Compound 88, (R)-5-chloro-2-((1-(6-fluoro-2-(5-fluoropyridin-2-yl)-3-deuteromethyl-4-oxo-3,4-dihydroquinazolin-8-yl)ethyl)amino)benzoic Acid] | > 5 | > 5 |  |  |  |
| [2H]C([2H])([2H])n1c(-c2cccc(F)c2)nc2c([C@@H](C)Nc3ccc(Cl)nc3C(=O)O)cc(F)cc2c1=O [Compound 89] | > 5 | 1 to 5 |  |  |  |
| Cc1cc([C@@H](C)Nc2ccc(Cl)cc2C(=O)O)c2nc(-c3ccc(F)cn3)n(C)c(=O)c2c1 [Compound 90] | > 5 | < 1 |  |  |  |
| [2H]C([2H])([2H])n1c(-c2ccc(F)cn2)nc2c([C@@H](C)Nc3ccc(F)cc3C(=O)O)cc(F)cc2c1=O [Compound 91] | > 5 | < 1 |  |  |  |
| [2H]C([2H])([2H])n1c(-c2cccc(F)c2)nc2c([C@@H](C)Nc3ccc(Cl)nc3C(=O)O)cc(C)cc2c1=O [Compound 93] | > 5 | < 1 |  |  |  |
| [2H]C([2H])([2H])n1c(-c2ccc(C(F)(F)F)nc2)nc2c([C@@H](C)Nc3ccc(Cl)nc3C(=O)O)cc(C)cc2c1=O [Compound 94] | > 5 | < 1 |  |  |  |
| C[C@@H](Nc1ccc(Cl)nc1C(=O)O)c1cc(Cl)cc2c(=O)n(C)c(-c3ncc(Cl)cn3)nc12 [Compound 97] | 1 to 5 | < 1 |  |  |  |
| C[C@@H](Nc1ccc(Cl)nc1C(=O)O)c1cc(Cl)cc2c(=O)n(C)c(-c3ncccn3)nc12 [Compound 98] | > 5 | < 1 |  |  |  |
| CCSc1nc2c([C@@H](C)Nc3ccc(Cl)nc3C(=O)OC)cc(F)cc2c(=O)n1C [Compound 105] | > 5 | 1 to 5 |  |  |  |
| COC(=O)c1nc(Cl)ccc1NC(C)c1cc(C)cc2c(=O)n(C)c(-c3ccc(OC)cc3)nc12 (stereo not shown) [Compound 106] | > 5 | < 1 |  |  |  |
| COc1ccc(-c2nc3c(C(C)N)cc(C)cc3c(=O)n2C)cc1 (stereo not shown) [Compound 107] | > 5 | < 1 |  |  |  |
| Cc1cc([C@@H](C)N[S@+]([O-])C(C)(C)C)c2nc(-c3ccncc3)n(C)c(=O)c2c1 [Compound 108] | > 5 | > 5 |  |  |  |
| Cc1cc([C@@H](C)Nc2ccc(Cl)nc2C(=O)O)c2nc(-c3ccncc3)n(C)c(=O)c2c1 [Compound 109, (R)-6-chloro-3-((1-(3,6-dimethyl-4-oxo-2-(pyridin-4-yl)-3,4-dihydroquinazolin-8-yl)ethyl)amino)pyridinecarboxylic Acid] | > 5 | < 1 |  |  |  |
| Cc1cc([C@@H](C)Nc2ccc(Cl)nc2C(N)=O)c2nc(-c3ccncc3)n(C)c(=O)c2c1 [Compound 110] | > 5 | < 1 |  |  |  |
| COc1ccc(-c2nc3c([C@@H](C)Nc4ccc(Cl)nc4C(=O)O)cc(C)cc3c(=O)n2C)cc1 [Compound 111] | > 5 |  |  |  |  |
| COc1ccc(-c2nc3c([C@@H](C)Nc4ccc(Cl)nc4C(N)=O)cc(C)cc3c(=O)n2C)cc1 [Compound 112] | 1 to 5 |  |  |  |  |
| COC(=O)c1nc(Cl)ccc1N[C@H](C)c1cc(C)cc2c(=O)nc(-c3ccc(C(F)(F)F)nc3)n(C)c12 [Compound 113] | > 5 |  |  |  |  |
| COC(=O)c1nc(Cl)ccc1N[C@@H](C)c1cc(C)cc2c(=O)nc(-c3ccc(C(F)(F)F)nc3)n(C)c12 [Compound 114] | > 5 |  |  |  |  |
| Cc1cc(C(C)N2CCc3ccccc32)c2oc(-c3ccc(F)cc3F)cc(=O)c2c1 (stereo not shown) [Compound 116, 2-(2,4-difluorophenyl)-8-(1-(indolin-1-yl)ethyl)-6-methyl-4H-benzopyran-4-one] | > 5 | > 5 |  |  |  |
